Converted amounts (≈) assume the structure as drawn. Where two headings read alike, the source gives them in different places.
Columns and labels:
[1] = tested on: Staphylococcus aureus ATCC 29213, CCM 4223; assay: Antibacterial microdilution broth method, S. aureus; format: cell-based
[2] = tested on: methicillin-resistant Staphylococcus aureus ATCC 43300, CCM 4750 (MRSA); assay: Antibacterial microdilution broth method, MRSA; format: cell-based; details: Staphylococcus aureus
[3] = tested on: Staphylococcus epidermidis H 6966/08; assay: Antibacterial microdilution broth method, S. epidermidis; format: cell-based; details: Staphylococcus epidermidis, H6966/08, S. epidermidis
[4] = tested on: Enterococcus faecalis ATCC 29212, CCM 4224; assay: Antibacterial microdilution broth method, E. faecalis; format: cell-based; details: Enterococcus faecalis
[5] = tested on: Escherichia coli ATCC 25922, CCM 3954; assay: Antibacterial microdilution broth method, E. coli; format: cell-based; details: Escherichia coli
[6] = tested on: Pseudomonas aeruginosa ATCC 27853, CCM 3955; assay: Antibacterial microdilution broth method, P. aeruginosa; format: cell-based; details: Pseudomonas aeruginosa, P. aeruginosa
[7] = tested on: Mycobacterium tuberculosis H37Rv (331/88); assay: Antimycobacterial micromethod in Šula's medium, M. tuberculosis; format: cell-based
[8] = tested on: Mycobacterium avium 330/88; assay: Antimycobacterial micromethod in Šula's medium, M. avium; format: cell-based
[9] = tested on: Mycobacterium kansasii 235/80; assay: Antimycobacterial micromethod in Šula's medium, M. kansasii 235/80; format: cell-based
[10] = tested on: M. kansasii 6509/96 (clinical isolate); assay: Antimycobacterial micromethod in Šula's medium, M. kansasii 6509/96; format: cell-based; details: Mycobacterium kansasii
[11] = tested on: Candida albicans ATCC 44859; assay: Antifungal microdilution broth method, C. albicans; format: cell-based
Experimental: (§1) The antifungal properties were evaluated against five yeast strains, namely: Candida albicans ATCC 44859, Candida tropicalis 156, Candida krusei […], Candida glabrata 20/I, Trichosporon […] 1188 and three strains of filamentous fungi: Aspergillus fumigatus 231, Lichtheimia corymbifera 272, and Trichophyton interdigitale 445. A microdilution broth method was performed according to EUCAST II, III instructions with slight modifications. Briefly, tested compounds were dissolved in DMSO and diluted in a twofold manner with RPMI-1640 medium with L-glutamine, supplemented with 2% glucose (w/v) and buffered to pH 7.0 with 3 morpholinopropane-1-sulfonic acid (all components were purchased from Sigma-Aldrich, USA). […] Positive controls consisted of test microbe solely, while negative controls consisted of medium and DMSO. Internal quality control was included too. Visual inspection was used for MIC endpoints evaluation. The experiments were conducted in duplicates. For the results to be valid, the difference in MIC determined from two parallel measurements must not be greater than one step on the dilution scale. PABA and triazole antimycotic drug fluconazole were involved as the reference compounds.

Candida tropicalis 156 = assay: Antifungal microdilution broth method, C. tropicalis; format: cell-based
Experimental: as §1

Candida krusei E28 = assay: Antifungal microdilution broth method, C. krusei; format: cell-based; details: Pichia kudriavzevii
Experimental: as §1

Candida glabrata 20/I = assay: Antifungal microdilution broth method, C. glabrata; format: cell-based; details: Nakaseomyces glabratus
Experimental: as §1

Trichosporon asahii 1188 = assay: Antifungal microdilution broth method, T. asahii; format: cell-based
Experimental: as §1

[12] = tested on: Aspergillus fumigatus 231; assay: Antifungal microdilution broth method, A. fumigatus; format: cell-based
Experimental: as §1

[13] = tested on: Lichtheimia corymbifera 272; assay: Antifungal microdilution broth method, L. corymbifera; format: cell-based
Experimental: as §1

[14] = tested on: Trichophyton interdigitale 445; assay: Antifungal microdilution broth method, T. interdigitale; format: cell-based
Experimental: as §1

[15] = tested on: four Gram-positive and four Gram-negative strains; assay: Antibacterial activity; format: cell-based; details: statement over the bacterial panel; time not stated
[16] = tested on: Mtb. 331/88 and three non-tuberculous mycobacterial strains; assay: Antimycobacterial activity; format: cell-based; details: statement over four mycobacterial strains; time not stated
eight fungal strains = assay: Antifungal activity; format: cell-based; details: statement over the fungal panel; time not stated
Experimental: as §1

[17] = tested on: ESBL-positive Klebsiella pneumoniae J 14368/08
[18] = tested on: Klebsiella pneumoniae D 11750/08; assay: Antibacterial microdilution broth method, K. pneumoniae; details: K. pneumoniae D 11750/08; for MIC KP 24 h: 24 h incubation; for MIC KP 48 h: 48 h incubation
staphylococci = details: according to EUCAST ref 33; cited from earlier work
[19] = 24 h incubation, read-out: MIC SA 24 h
[20] = 48 h incubation, read-out: MIC SA 48 h
[21] = 24 h incubation, read-out: MIC MRSA 24 h
[22] = 48 h incubation, read-out: MIC MRSA 48 h
[23] = 24 h incubation, read-out: MIC SE 24 h
[24] = 48 h incubation, read-out: MIC SE 48 h
[25] = 24 h incubation, read-out: MIC EF 24 h
[26] = 48 h incubation, read-out: MIC EF 48 h
[27] = 24 h incubation, read-out: MIC EC 24 h
[28] = 48 h incubation, read-out: MIC EC 48 h
[29] = 24 h incubation, read-out: MIC PA 24 h
[30] = 48 h incubation, read-out: MIC PA 48 h
[31] = 336 h, 14 days incubation at 37 °C, read-out: MIC Mtb. 331/88 14 d
[32] = 504 h, 21 days incubation at 37 °C, read-out: MIC Mtb. 331/88 21 d
[33] = 330/88, 336 h, 14 days incubation at 37 °C, read-out: MIC M. avium 330/88 14 d
[34] = 330/88, 504 h, 21 days incubation at 37 °C, read-out: MIC M. avium 330/88 21 d
[35] = 235/80, 168 h, 7 days incubation at 37 °C, read-out: MIC M. kansasii 235/80 7 d
[36] = 235/80, 336 h, 14 days incubation at 37 °C, read-out: MIC M. kansasii 235/80 14 d
[37] = 235/80, 504 h, 21 days incubation at 37 °C, read-out: MIC M. kansasii 235/80 21 d
[38] = 168 h, 7 days incubation at 37 °C, read-out: MIC M. kansasii 6509/96 7 d
[39] = 336 h, 14 days incubation at 37 °C, read-out: MIC M. kansasii 6509/96 14 d
[40] = 504 h, 21 days incubation at 37 °C, read-out: MIC M. kansasii 6509/96 21 d
[41] = ATCC44859, 24 h, read-out: MIC CA 24 h
[42] = ATCC44859, 48 h, read-out: MIC CA 48 h

## COc1ccccc1C=Nc1ccc(C(=O)O)cc1 [1s, 4-[(2-Methoxybenzylidene)amino]benzoic acid]
[1]; [19]
  MIC: > 500 µM
[1]; [20]
  MIC: > 500 µM
[2]; [21]
  MIC: > 500 µM
[2]; [22]
  MIC: > 500 µM
[3]; [23]
  MIC: > 500 µM
[3]; [24]
  MIC: > 500 µM
[4]; [25]
  MIC: > 500 µM
[4]; [26]
  MIC: > 500 µM
[5]; [27]
  MIC: > 500 µM
[5]; [28]
  MIC: > 500 µM
[6]; [29]
  MIC: > 500 µM
[6]; [30]
  MIC: > 500 µM
[7]; [31]
  MIC: 1000 µM (≈ 255 µg/mL)
[7]; [32]
  MIC: 1000 µM (≈ 255 µg/mL)
[8]; [33]
  MIC: > 1000 µM
[8]; [34]
  MIC: > 1000 µM
[9]; [35]
  MIC: 1000 µM (≈ 255 µg/mL)
[9]; [36]
  MIC: 1000 µM (≈ 255 µg/mL)
[9]; [37]
  MIC: > 1000 µM
[10]; [38]
  MIC: 1000 µM (≈ 255 µg/mL)
[10]; [39]
  MIC: 1000 µM (≈ 255 µg/mL)
[10]; [40]
  MIC: 1000 µM (≈ 255 µg/mL)
[11]; [41]
  MIC: > 500 µM
[11]; [42]
  MIC: > 500 µM
Candida tropicalis 156; 24 h, read-out: MIC CT 24 h
  MIC: > 500 µM
Candida tropicalis 156; 48 h, read-out: MIC CT 48 h
  MIC: > 500 µM
Candida krusei E28; 24 h, read-out: MIC CK 24 h
  MIC: > 500 µM
Candida krusei E28; 48 h, read-out: MIC CK 48 h
  MIC: > 500 µM
Candida glabrata 20/I; 24 h, read-out: MIC CG 24 h
  MIC: > 500 µM
Candida glabrata 20/I; 48 h, read-out: MIC CG 48 h
  MIC: > 500 µM
Trichosporon asahii 1188; 24 h, read-out: MIC TA 24 h
  MIC: > 500 µM
Trichosporon asahii 1188; 48 h, read-out: MIC TA 48 h
  MIC: > 500 µM
[12]; 24 h, read-out: MIC AF 24 h
  MIC: > 500 µM
[12]; 48 h, read-out: MIC AF 48 h
  MIC: > 500 µM
[13]; 24 h, read-out: MIC LC 24 h
  MIC: > 500 µM
[13]; 48 h, read-out: MIC LC 48 h
  MIC: > 500 µM
[14]; 72 h, read-out: MIC TI 72 h
  MIC: > 500 µM
[14]; 120 h, read-out: MIC TI 120 h
  MIC: > 500 µM
[15]
  MIC, antibacterial activity: avoided any antibacterial action
[16]
  MIC, antimycobacterial activity: only negligible antimycobacterial activity
Eight fungal strains
  MIC, antifungal activity: no antimycotic potency
[17]
  MIC KP-E 24 h: >500 µM
  MIC KP-E 48 h: >500 µM
[18]
  MIC KP 24 h: >500 µM
  MIC KP 48 h: >500 µM

## O=C(O)c1ccc(N=Cc2ccc(O)cc2)cc1 [1t, 4-[(4-Hydroxybenzylidene)amino]benzoic acid]
[1]; [19]
  MIC: > 500 µM
[1]; [20]
  MIC: > 500 µM
[2]; [21]
  MIC: > 500 µM
[2]; [22]
  MIC: > 500 µM
[3]; [23]
  MIC: > 500 µM
[3]; [24]
  MIC: > 500 µM
[4]; [25]
  MIC: > 500 µM
[4]; [26]
  MIC: > 500 µM
[5]; [27]
  MIC: > 500 µM
[5]; [28]
  MIC: > 500 µM
[6]; [29]
  MIC: > 500 µM
[6]; [30]
  MIC: > 500 µM
[7]; [31]
  MIC: 1000 µM (≈ 241 µg/mL)
[7]; [32]
  MIC: 1000 µM (≈ 241 µg/mL)
[8]; [33]
  MIC: 1000 µM (≈ 241 µg/mL)
[8]; [34]
  MIC: > 1000 µM
[9]; [35]
  MIC: 1000 µM (≈ 241 µg/mL)
[9]; [36]
  MIC: 1000 µM (≈ 241 µg/mL)
[9]; [37]
  MIC: > 1000 µM
[10]; [38]
  MIC: 1000 µM (≈ 241 µg/mL)
[10]; [39]
  MIC: 1000 µM (≈ 241 µg/mL)
[10]; [40]
  MIC: 1000 µM (≈ 241 µg/mL)
[11]; [41]
  MIC: > 500 µM
[11]; [42]
  MIC: > 500 µM
Candida tropicalis 156; 24 h, read-out: MIC CT 24 h
  MIC: > 500 µM
Candida tropicalis 156; 48 h, read-out: MIC CT 48 h
  MIC: > 500 µM
Candida krusei E28; 24 h, read-out: MIC CK 24 h
  MIC: > 500 µM
Candida krusei E28; 48 h, read-out: MIC CK 48 h
  MIC: > 500 µM
Candida glabrata 20/I; 24 h, read-out: MIC CG 24 h
  MIC: > 500 µM
Candida glabrata 20/I; 48 h, read-out: MIC CG 48 h
  MIC: > 500 µM
Trichosporon asahii 1188; 24 h, read-out: MIC TA 24 h
  MIC: > 500 µM
Trichosporon asahii 1188; 48 h, read-out: MIC TA 48 h
  MIC: > 500 µM
[12]; 24 h, read-out: MIC AF 24 h
  MIC: > 500 µM
[12]; 48 h, read-out: MIC AF 48 h
  MIC: > 500 µM
[13]; 24 h, read-out: MIC LC 24 h
  MIC: > 500 µM
[13]; 48 h, read-out: MIC LC 48 h
  MIC: > 500 µM
[14]; 72 h, read-out: MIC TI 72 h
  MIC: > 500 µM
[14]; 120 h, read-out: MIC TI 120 h
  MIC: > 500 µM
[15]
  MIC, antibacterial activity: avoided any antibacterial action
[16]
  MIC, antimycobacterial activity: only negligible antimycobacterial activity
Eight fungal strains
  MIC, antifungal activity: no antimycotic potency
[17]
  MIC KP-E 24 h: >500 µM
  MIC KP-E 48 h: >500 µM
[18]
  MIC KP 24 h: >500 µM
  MIC KP 48 h: >500 µM

## O=C1CN(/N=C/c2ccc([N+](=O)[O-])o2)C(=O)N1 [nitrofurantoin]
staphylococci
  breakpoint for staphylococci: 32 to 64 µg/mL
